Patent publication US20070032477A1, “Pteridine derivatives useful for making pharmaceutical compositions” (priority 2003, published 2007)

Experiments:
[1] = system: mixed lymphocyte reaction (PBMC with allogeneic PBMC or Eppstein-Barr Virus-transformed human B cells as stimulator cells); assay: Mixed lymphocyte reaction (MLR) assay; type: cell-based; settings: lowest concentration giving 50% suppression of the MLR; [3H]-thymidine
Protocol: Pteridine derivatives were first dissolved (10 mM) in dimethylsulfoxide (hereinafter referred as DMSO) and further diluted in culture medium before use for the following in vitro experiments. The commercially available culture medium consisted of RPMI-1640+10% foetal calf serum (FCS). Some pteridine derivatives described in the previous examples (as indicated in table 1) were tested in the following mixed lymphocyte reaction (MLR) assay.
Peripheral blood mononuclear cells (hereinafter referred as PBMC) were isolated from heparinized peripheral blood by density gradient centrifugation over Lymphoprep (Nycomed, Maorstua, Norway). Allogeneic PBMC or Eppstein-Barr Virus-transformed human B cells [commercially available under the trade name RPM11788 (ATCC name CCL156)] which strongly express B7-1 and B7-2 antigens were used as stimulator cells after irradiation with 30 Gy. MLR was performed in triplicate wells. After 5 days incubation at 37° C., 1 μCi [^3H]-thymidine was added to each cup. After a further 16 hours incubation, cells were harvested and counted in a […]. Inhibition of proliferation by a compound (drug) described in some of the previous examples was counted using the formula: [formula] wherein cpm is the thymidine count per minute. The MLR assay is regarded by those skilled in the art as an in vitro analogue of the transplant rejection since it is based on the recognition of allogeneic major histocompatibility antigens on the stimulator leukocytes, by responding lymphocytes.

[2] = system: production of TNF-α by PBMC in response to stimulation by LPS; assay: TNF-α assay; type: cell-based, human; settings: LPS 1 μg/ml, 72 hours, sandwich ELISA
Protocol: Peripheral blood mononuclear cells (herein referred as PBMC), in response to stimulation by lipopolysaccharide (hereinafter LPS), a gram-negative bacterial endotoxin, produce various […], in particular human TNF-α. Inhibition of the activation of PBMC can therefore be measured by the level of suppression of the production of TNF-α by PBMC in response to stimulation by LPS.
Such inhibition measurement was performed as follows: PBMC were isolated from heparinized peripheral blood by density gradient centrifugation over Lymphoprep (commercially available from Nycomed, Norway). LPS was then added to the PMBC suspension in complete medium (10^6 cells/ml) at a final concentration of 1 μg/ml. The pteridine derivative to be tested was added at different concentrations (0.1 μM, 1 μM and 10 μM) and the cells were incubated at 37° C. for 72 hours in 5% CO2. The supernatants were collected, then TNF-α concentrations were measured with respectively an anti-TNF-α antibody in a sandwich ELISA (Duo Set ELISA human TNFα, commercially available from R&D Systems, United Kingdom). The calorimetric reading of the ELISA was measured by a Multiskan RC plate reader (commercially available from ThermoLabsystems, Finland) at 450 nm (reference wavelength: 690 nm). Data analysis was performed with Ascent software 2.6. (also from ThermoLabsystems, Finland): a standard curve (recombinant human TNFα) was drawn and the amount (pg/ml) of each sample on the standard curve was determined.
The % suppression of human TNFα production by the pteridine derivatives of the invention (drugs) was calculated using the formula: [formula]

Row | Structure (SMILES) | IC50 [1] [nM] | IC50 [2] [nM]
1 | COc1ccc(-c2cnc3nc(N)nc(N4CCN(C(=O)Nc5ccc(F)c(Cl)c5)CC4)c3n2)cc1OC [Example 106, 2-amino-4-(N-3-chloro-4-fluorophenylcarbamoyl-piperazin-1-yl)-6-(3,4-dimethoxyphenyl)pteridine] | 58 | 1400
2 | CCCCNC(=O)N1CCN(c2nc(N)nc3ncc(-c4ccc(OC)c(OC)c4)nc23)CC1 [Example 109, 2-amino-4-[(N-butyl-carbamoyl-piperazin-1-yl)]-6-(3,4-dimethoxyphenyl)pteridine] | 100 | 400
3 | COc1ccc(-c2cnc3nc(N)nc(N4CCN(C(=O)N(C)c5ccccc5)CC4)c3n2)cc1OC [Example 117, 2-amino-4-(N-methyl-N-phenyl-carbamoyl-piperazin-1-yl)-6-(3,4-dimethoxyphenyl)pteridine] | 72 | 50
4 | COc1ccc(-c2cnc3nc(N)nc(N4CCN(C(=O)N(C)c5ccc(C)cc5)CC4)c3n2)cc1OC [Example 119, 2-amino-4-(N-methyl-N-tolyl-carbamoyl-piperazin-1-yl)-6-(3,4-dimethoxyphenyl)pteridine] | 300 | 260
5 | COc1ccc(-c2cnc3nc(N)nc(N4CCN(CCN(C(C)C)C(C)C)CC4)c3n2)cc1OC [Example 128, 2-amino-4-(1-(2-diisopropylaminoethyl)-piperazino)-6-(3,4-dimethoxyphenyl)pteridine] | 7400 | 3300
6 | COc1ccc(-c2cnc3nc(N)nc(N4CCN(CCN5CCOCC5)CC4)c3n2)cc1OC [Example 129, 2-amino-4-(1-(2-morpholino4-yl-ethyl)-piperazino)-6-(3,4-dimethoxyphenyl)pteridine] | 2500 | 800
7 | COc1ccc(-c2cnc3nc(N)nc(N4CCN(C(=O)CN5CCOCC5)CC4)c3n2)cc1OC [Example 130, 2-amino-4-(4-[2-(piperazin-1-yl)-acetyl]-morpholino)-6-(3,4-dimethoxy-phenyl)pteridine] | 1500 | 1400
8 | CCOC(=O)C(C)N1CCN(c2nc(N)nc3ncc(-c4ccc(OC)c(OC)c4)nc23)CC1 (stereo not drawn) [Example 133, 2-amino-4-(2-(piperazin-1-yl)-propionic acid ethyl ester)-6-(3,4-dimethoxyphenyl)pteridine] | 1200 | 330
9 | COc1ccc(-c2cnc3nc(N)nc(N4CCN(Cc5c(Cl)cccc5Cl)CC4)c3n2)cc1OC [Example 137, 2-amino-4-[(2,6-dichlorobenzyl)piperazin-1-yl]-6-(3,4-dimethoxyphenyl)pteridine] | 7600 | 700
10 | COc1ccc(-c2cnc3nc(N)nc(N4CCN(Cc5ccccc5F)CC4)c3n2)cc1OC [Example 141, 2-amino-4-((2-fluorobenzyl)piperazin-1-yl)-6-(3,4-dimethoxyphenyl)pteridine] | 700 | 200
11 | COc1ccc(-c2cnc3nc(N)nc(N4CCN(Cc5ccc(C(C)(C)C)cc5)CC4)c3n2)cc1OC [Example 144, 2-amino-4-((4-tert-butylbenzyl)piperazin-1-yl)-6-(3,4-dimethoxyphenyl)pteridine] | 4300 | 700
12 | COc1ccc(-c2cnc3nc(N)nc(N4CCN(c5ccncc5)CC4)c3n2)cc1OC [Example 145, 2-amino-4-((4-pyridyl)-piperazin-1-yl)-6-(3,4-dimethoxyphenyl)pteridine] | 3500 | 4400
13 | COc1ccc(-c2cnc3nc(N)nc(N4CCN(Cc5cccc6ccccc56)CC4)c3n2)cc1OC [Example 158, 2-amino-4-((1-naphtylmethyl)-piperazin-1-yl)-6-(3,4-dimethoxyphenyl)pteridine] | 800 | 700
14 | COc1ccc(-c2cnc3nc(N)nc(N4CCN(c5ccccc5OC)CC4)c3n2)cc1OC [Example 160, 2-amino-4-((2-methoxyphenyl)-piperazin-1-yl)-6-(3,4-dimethoxyphenyl)pteridine] | 3800 | 420
15 | COc1ccc(-c2cnc3nc(N)nc(N4CCN(CCC#N)CC4)c3n2)cc1OC [Example 163, 2-amino-6-(3,4-dimethoxyphenyl)-4-(4-(3-propionitril)-piperazin-1-yl)pteridine] | 500 | 500
16 | COc1ccc(-c2cnc3nc(N)nc(N4CCN(CC(C)C)CC4)c3n2)cc1OC [Example 168, 2-amino-6-(3,4-dimethoxyphenyl)-4-(1-isobutyl-piperazin-1-yl)pteridine] | 1600 | 90
17 | COc1ccc(-c2cnc3nc(N)nc(N4CCN(c5cc(Cl)cc(Cl)c5)CC4)c3n2)cc1OC [Example 171, 2-amino-4-((3,5-dichlorophenyl)-piperazin-1-yl)-6-(3,4-dimethoxyphenyl)pteridine] | 3400 | 500
18 | COc1ccc(-c2cnc3nc(N)nc(N4CCN(Cc5ccccn5)CC4)c3n2)cc1OC [Example 177, 2-amino-6-(3,4-dimethoxyphenyl)-4-((2-pyridyl)methyl-piperazin-1-yl)pteridine] | 800 | 90
19 | COc1ccc(-c2cnc3nc(N)nc(N4CCN(CC5CCCN(C)C5)CC4)c3n2)cc1OC (stereo not drawn) [Example 179, 2-amino-6-(3,4-dimethoxyphenyl)-4-(1-(1-methyl-piperidin-3-yl-methyl)-piperazin-1-yl)pteridine] | 7900 | 1800
20 | COc1ccc(-c2cnc3nc(N)nc(N4CCN(c5ccc(C(F)(F)F)cc5[N+](=O)[O-])CC4)c3n2)cc1OC [Example 185, 2-amino-4-[4-trifluoromethyl-2-nitro-phenyl-piperazin-1-yl)-6-(3,4-dimethoxyphenyl)pteridine] | 1900 | 500
21 | COc1ccc(-c2cnc3nc(N)nc(N4CCN(c5ccc([N+](=O)[O-])cc5C(F)(F)F)CC4)c3n2)cc1OC [Example 186, 2-amino-4-[2-trifluoromethyl-4-nitro-phenyl-piperazin-1-yl)-6-(3,4-dimethoxyphenyl)pteridine] | 5000 | 400
22 | COc1ccc(-c2cnc3nc(N)nc(N4CCN(C(=O)Nc5cccc(Cl)c5)CC4)c3n2)cc1OC [Example 193, 2-amino-4-(N-3-chloro-phenyl-carbamoyl-piperazin-1-yl)-6-(3,4-dimethoxyphenyl)pteridine] | 36 | 500
23 | COc1ccc(-c2cnc3nc(N)nc(N4CCN(C(=O)Nc5cccc(C(F)(F)F)c5)CC4)c3n2)cc1OC [Example 195, 2-amino-4-(N-3-trifluoromethyl-phenyl-carbamoyl-piperazin-1-yl)-6-(3,4-dimethoxyphenyl)pteridine] | 36 | 700
24 | COc1cc(-c2cnc3nc(N)nc(N4CCN(c5ccc(C)cc5)CC4)c3n2)ccc1O [Example 206] | 500 | 700
